Laboratory results as given in patent publication US7138361B2, “Herbicidal heterocycles” (E. I. du Pont de Nemours and Company, priority 2000, dated 2006).

Columns and labels:
Type in all cases: in vivo
[1] = tested on: bermudagrass (Cynodon dactylon); assay: Test C postemergence
Text: (§1) Seeds of plant species selected from bermudagrass (Cynodon dactylon), Surinam grass (Brachiaria decumbens), cocklebur (Xanthium strumarium), corn (Zea mays), crabgrass (Digitaria sanguinalis), woolly cupgrass (Eriochloa villosa), giant foxtail (Setaria faberii), goosegrass (Eleusine indica), johnsongrass (Sorghum halepense), kochia (Kochia scoparia), lambsquarters (Chenopodium album), morningglory (Ipomoea hederacea), yellow nutsedge (Cyperus esculentus), pigweed (Amaranthus retroflexus), common ragweed (Ambrosia elatior), soybean (Glycine max) and velvetleaf (Abutilon theophrasti) were planted and treated preemergence with test chemicals formulated in a non-phytotoxic solvent mixture which included a surfactant.
(§2) At the same time, plants selected from these crop and weed species and also winter barley (Hordeum vulgare), blackgrass (Alopecurus myosuroides), canary grass (Phalaris minor), chickweed (Stellaria media), downy brome (Bromus tectorum), green foxtail (Setaria viridis), Italian ryegrass (Lolium multiflorum), wheat (Triticum aestivum), wild oat (Avena fatua) and windgrass (Apera spica-venti) were treated with postemergence applications of some of the test chemicals formulated in the same manner. Plants ranged in height from 2 to 18 cm (1- to 4-leaf stage) for postemergence treatments. Plant species in the flooded paddy test consisted of rice (Oryza saliva), smallflower flatsedge (Cyperus difformis), duck salad (Heteranthera limosa) and barnyardgrass (Echinochloa crus-galli) grown to the 2-leaf stage for testing. Treated plants and controls were maintained in a greenhouse for 12 to 14 days, after which time all species were compared to controls and visually evaluated. Plant response ratings, summarized in Table C, are based on a scale of 0 to 100 where 0 is no effect and 100 is complete control. A dash (-) response means no test result.

[2] = tested on: cocklebur (Xanthium strumarium); assay: Test C postemergence
Text: as §1, §2

[3] = tested on: common ragweed (Ambrosia elatior); assay: Test C postemergence
Text: as §1, §2

[4] = tested on: corn (Zea mays); assay: Test C postemergence
Text: as §1, §2

[5] = tested on: crabgrass (Digitaria sanguinalis); assay: Test C postemergence
Text: as §1, §2

[6] = tested on: giant foxtail (Setaria faberii); assay: Test C postemergence
Text: as §1, §2

[7] = tested on: goosegrass (Eleusine indica); assay: Test C postemergence
Text: as §1, §2

[8] = tested on: johnsongrass (Sorghum halepense); assay: Test C postemergence
Text: as §1, §2

[9] = tested on: kochia (Kochia scoparia); assay: Test C postemergence
Text: as §1, §2

[10] = tested on: lambsquarters (Chenopodium album); assay: Test C postemergence
Text: as §1, §2

[11] = tested on: morningglory (Ipomoea hederacea); assay: Test C postemergence
Text: as §1, §2

[12] = tested on: pigweed (Amaranthus retroflexus); assay: Test C postemergence
Text: as §1, §2

[13] = tested on: soybean (Glycine max); assay: Test C postemergence
Text: as §1, §2

[14] = tested on: velvetleaf (Abutilon theophrasti); assay: Test C postemergence
Text: as §1, §2

[15] = tested on: yellow nutsedge (Cyperus esculentus); assay: Test C postemergence
Text: as §1, §2

[16] = tested on: barnyardgrass (Echinochloa crus-galli); assay: Test C flooded paddy test; details: for Barnyardgrass plant response rating: Flooded Paddy, scale 0 to 100, 0 no effect, 100 complete control; for Plant response rating, Barnyardgrass: flooded paddy test, scale 0 to 100 (0 no effect, 100 complete control)
How it was run: (§3)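 Ratings come from visual comparison with control plants after 12 to 14 days in the greenhouse. Each species was at the 2-leaf stage when the flooded paddy was treated. Scores run from 0, meaning no effect, to 100, meaning complete control.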

[17] = tested on: duck salad (Heteranthera limosa); assay: Test C flooded paddy test; details: for Ducksalad plant response rating: Flooded Paddy, scale 0 to 100, 0 no effect, 100 complete control; for Plant response rating, Ducksalad: flooded paddy test, scale 0 to 100 (0 no effect, 100 complete control)
How it was run: as §3

[18] = tested on: rice (Oryza saliva); assay: Test C flooded paddy test; details: for Rice plant response rating: Flooded Paddy, scale 0 to 100, 0 no effect, 100 complete control; for Plant response rating, Rice: flooded paddy test, scale 0 to 100 (0 no effect, 100 complete control)
How it was run: as §3

[19] = tested on: Sunflower; assay: Test C preemergence; details: Rate 62 g/ha, scale 0 to 100
[20] = Rate 125 g/ha, scale 0 to 100, 0 no effect, 100 complete control
[21] = Rate 250 g/ha, scale 0 to 100 (0 no effect, 100 complete control)
[22] = Rate 500 g/ha, scale 0 to 100 (0 no effect, 100 complete control)

O=C1C(n2ccc(C3CCC3)n2)SCN1c1cccc(OC(F)(F)F)c1 (centres unmarked) [Compound 38]
Plant response rating, Bermudagrass ([1]; Rate 62 g/ha, scale 0 to 100): 0
Plant response rating, Bermudagrass [1, 20]: 0
Plant response rating, Bermudagrass [1, 21]: 30
Plant response rating, Bermudagrass [1, 22]: 70
Plant response rating, Cocklebur ([2]; Rate 62 g/ha, scale 0 to 100): 0
Plant response rating, Cocklebur [2, 20]: 0
Plant response rating, Cocklebur [2, 21]: 0
Plant response rating, Cocklebur [2, 22]: 20
Plant response rating, Ragweed, Common ([3]; Rate 62 g/ha, scale 0 to 100): 0
Plant response rating, Ragweed, Common [3, 20]: 0
Plant response rating, Ragweed, Common [3, 21]: 40
Plant response rating, Ragweed, Common [3, 22]: 40
Plant response rating, Corn ([4]; Rate 62 g/ha, scale 0 to 100): 0
Plant response rating, Corn [4, 20]: 0
Plant response rating, Corn [4, 21]: 0
Plant response rating, Corn [4, 22]: 0
Plant response rating, Crabgrass ([5]; Rate 62 g/ha, scale 0 to 100): 0
Plant response rating, Crabgrass [5, 20]: 0
Plant response rating, Crabgrass [5, 21]: 0
Plant response rating, Crabgrass [5, 22]: 30
Plant response rating, Foxtail, Giant ([6]; Rate 62 g/ha, scale 0 to 100): 0
Plant response rating, Foxtail, Giant [6, 20]: 0
Plant response rating, Foxtail, Giant [6, 21]: 0
Plant response rating, Foxtail, Giant [6, 22]: 0
Plant response rating, Goosegrass ([7]; Rate 62 g/ha, scale 0 to 100): 0
Plant response rating, Goosegrass [7, 20]: 0
Plant response rating, Goosegrass [7, 21]: 0
Plant response rating, Goosegrass [7, 22]: 0
Plant response rating, Johnsongrass ([8]; Rate 62 g/ha, scale 0 to 100): 0
Plant response rating, Johnsongrass [8, 20]: 0
Plant response rating, Johnsongrass [8, 21]: 0
Plant response rating, Johnsongrass [8, 22]: 30
Plant response rating, Kochia ([9]; Rate 62 g/ha, scale 0 to 100): 60
Plant response rating, Kochia [9, 20]: 60
Plant response rating, Kochia [9, 21]: 70
Plant response rating, Kochia [9, 22]: 70
Plant response rating, Lambsquarters ([10]; Rate 62 g/ha, scale 0 to 100): 30
Plant response rating, Lambsquarters [10, 20]: 30
Plant response rating, Lambsquarters [10, 21]: 70
Plant response rating, Lambsquarters [10, 22]: 70
Plant response rating, Morningglory ([11]; Rate 62 g/ha, scale 0 to 100): 0
Plant response rating, Morningglory [11, 20]: 0
Plant response rating, Morningglory [11, 21]: 0
Plant response rating, Morningglory [11, 22]: 20
Plant response rating, Pigweed ([12]; Rate 62 g/ha, scale 0 to 100): 0
Plant response rating, Pigweed [12, 20]: 0
Plant response rating, Pigweed [12, 21]: 0
Plant response rating, Pigweed [12, 22]: 0
Plant response rating, Soybean ([13]; Rate 62 g/ha, scale 0 to 100): 0
Plant response rating, Soybean [13, 20]: 0
Plant response rating, Soybean [13, 21]: 0
Plant response rating, Soybean [13, 22]: 0
Plant response rating, Velvetleaf ([14]; Rate 62 g/ha, scale 0 to 100): 0
Plant response rating, Velvetleaf [14, 20]: 0
Plant response rating, Velvetleaf [14, 21]: 0
Plant response rating, Velvetleaf [14, 22]: 0
Plant response rating, Nutsedge ([15]; Rate 62 g/ha, scale 0 to 100): 0
Plant response rating, Nutsedge [15, 20]: 0
Plant response rating, Nutsedge [15, 21]: 0
Plant response rating, Nutsedge [15, 22]: 0
Barnyardgrass plant response rating ([16]; Rate 250 g/ha): 100
Barnyardgrass plant response rating ([16]; Rate 500 g/ha): 100
Plant response rating, Barnyardgrass ([16]; Rate 62 g/ha): 100
Plant response rating, Barnyardgrass ([16]; Rate 125 g/ha): 100
Ducksalad plant response rating ([17]; Rate 250 g/ha): 90
Ducksalad plant response rating ([17]; Rate 500 g/ha): 80
Plant response rating, Ducksalad ([17]; Rate 62 g/ha): 50
Plant response rating, Ducksalad ([17]; Rate 125 g/ha): 90
Rice plant response rating ([18]; Rate 250 g/ha): 50
Rice plant response rating ([18]; Rate 500 g/ha): 80
Plant response rating, Rice ([18]; Rate 62 g/ha): 20
Plant response rating, Rice ([18]; Rate 125 g/ha): 30

Cc1ccc(N2CCC(n3ccc(C(C)(C)C)n3)C2=O)cc1I (centres unmarked) [Compound 122]
Plant response rating, Bermudagrass ([1]; Rate 62 g/ha, scale 0 to 100): 0
Plant response rating, Bermudagrass [1, 20]: 0
Plant response rating, Bermudagrass [1, 21]: 0
Plant response rating, Bermudagrass [1, 22]: 0
Plant response rating, Cocklebur ([2]; Rate 62 g/ha, scale 0 to 100): 20
Plant response rating, Cocklebur [2, 21]: 40
Plant response rating, Cocklebur [2, 22]: 70
Plant response rating, Corn ([4]; Rate 62 g/ha, scale 0 to 100): 0
Plant response rating, Corn [4, 21]: 0
Plant response rating, Corn [4, 22]: 0
Plant response rating, Corn ([4]; scale 0 to 100): 0
Plant response rating, Crabgrass ([5]; Rate 62 g/ha, scale 0 to 100): 0
Plant response rating, Crabgrass [5, 21]: 0
Plant response rating, Crabgrass [5, 22]: 0
Plant response rating, Foxtail, Giant ([6]; Rate 62 g/ha, scale 0 to 100): 0
Plant response rating, Foxtail, Giant [6, 21]: 0
Plant response rating, Foxtail, Giant [6, 22]: 40
Plant response rating, Goosegrass ([7]; Rate 62 g/ha, scale 0 to 100): 0
Plant response rating, Goosegrass [7, 21]: 0
Plant response rating, Goosegrass [7, 22]: 0
Plant response rating, Johnsongrass ([8]; Rate 62 g/ha, scale 0 to 100): 0
Plant response rating, Johnsongrass [8, 21]: 0
Plant response rating, Johnsongrass [8, 22]: 0
Plant response rating, Johnsongrass ([8]; rate not given, scale 0 to 100): 0
Plant response rating, Kochia ([9]; Rate 62 g/ha, scale 0 to 100): 90
Plant response rating, Kochia [9, 21]: 100
Plant response rating, Kochia [9, 22]: 100
Plant response rating, Lambsquarters ([10]; Rate 62 g/ha, scale 0 to 100): 100
Plant response rating, Lambsquarters [10, 21]: 100
Plant response rating, Lambsquarters [10, 22]: 100
Plant response rating, Morningglory ([11]; Rate 62 g/ha, scale 0 to 100): 20
Plant response rating, Morningglory [11, 21]: 90
Plant response rating, Morningglory [11, 22]: 100
Plant response rating, Pigweed ([12]; Rate 62 g/ha, scale 0 to 100): 40
Plant response rating, Pigweed [12, 21]: 100
Plant response rating, Pigweed [12, 22]: 100
Plant response rating, Soybean ([13]; Rate 62 g/ha, scale 0 to 100): 40
Plant response rating, Soybean [13, 21]: 50
Plant response rating, Soybean [13, 22]: 60
Plant response rating, Velvetleaf ([14]; Rate 62 g/ha, scale 0 to 100): 0
Plant response rating, Velvetleaf [14, 21]: 0
Plant response rating, Velvetleaf [14, 22]: 20
Plant response rating, Velvetleaf ([14]; scale 0 to 100): 0
Plant response rating, Nutsedge ([15]; Rate 62 g/ha, scale 0 to 100): 0
Plant response rating, Nutsedge [15, 21]: 0
Plant response rating, Nutsedge [15, 22]: 0
Barnyardgrass plant response rating ([16]; Rate 250 g/ha): 0
Barnyardgrass plant response rating ([16]; Rate 500 g/ha): 100
Plant response rating, Barnyardgrass ([16]; Rate 62 g/ha): 0
Plant response rating, Barnyardgrass ([16]; Rate 125 g/ha): 0
Ducksalad plant response rating ([17]; Rate 250 g/ha): 30
Ducksalad plant response rating ([17]; Rate 500 g/ha): 60
Plant response rating, Ducksalad ([17]; Rate 62 g/ha): 20
Plant response rating, Ducksalad ([17]; Rate 125 g/ha): 20
Rice plant response rating ([18]; Rate 250 g/ha): 0
Rice plant response rating ([18]; Rate 500 g/ha): 0
Plant response rating, Rice ([18]; Rate 62 g/ha): 0
Plant response rating, Rice ([18]; Rate 125 g/ha): 0
Plant response rating, Sunflower [19]: 0
